Test results published in paper PMC3139024 (Bioorganic & medicinal chemistry letters, 2011).

Key:
[1] = tested on: panel of 15 bacterial strains; test: organism not typed; type: cell-based
HsPDF = biological target: T1, HsPDF (Homo sapiens, UniProt Q9HBH1); test: HsPDF inhibition, potency and selectivity profiling; type: biochemical; conditions: for inhibition at 100 µM: read-out: HsPDF (%I); for HsPDF (%I): % Inhibition at 100 μM, average of duplicates, 100: ≥100 %I, 0: ≤0 %I
T1 sequence (Q9HBH1 40-243): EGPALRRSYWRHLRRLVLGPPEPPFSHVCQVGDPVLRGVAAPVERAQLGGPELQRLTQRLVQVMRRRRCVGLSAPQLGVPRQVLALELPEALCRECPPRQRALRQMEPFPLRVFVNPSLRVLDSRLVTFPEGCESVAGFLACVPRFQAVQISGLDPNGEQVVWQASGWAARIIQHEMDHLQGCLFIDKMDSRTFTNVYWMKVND

EcPDF = EcPDF (Escherichia coli, UniProt P0A6K3); test: EcPDF inhibition, potency and selectivity profiling; type: biochemical; conditions: for EcPDF (%I): % Inhibition at 100 μM, average of duplicates, 100: ≥100 %I, 0: ≤0 %I
Sequence of EcPDF (P0A6K3 whole entry): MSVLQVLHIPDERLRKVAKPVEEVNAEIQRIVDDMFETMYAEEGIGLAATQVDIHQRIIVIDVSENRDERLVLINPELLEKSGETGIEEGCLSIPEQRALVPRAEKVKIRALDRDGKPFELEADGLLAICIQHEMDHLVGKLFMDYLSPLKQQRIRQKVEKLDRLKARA

HL-60/RV+ = test: cytotoxicity profile, HL-60/RV+; type: cell-based; conditions: Homo sapiens, HL-60, read-out: Cytotoxicity IC50, HL-60/RV+
HEK293 = test: cytotoxicity profile, HEK293; type: cell-based; conditions: Homo sapiens, HEK293, read-out: Cytotoxicity IC50, HEK293
Y79 = test: cytotoxicity profile, Y79; type: cell-based; conditions: Homo sapiens, Y79, read-out: Cytotoxicity IC50, Y79
Meso47 = test: cytotoxicity profile, Meso47; type: cell-based; conditions: read-out: Cytotoxicity IC50, Meso47
APN = APN (Homo sapiens, UniProt P15144); test: APN inhibition, metalloprotease selectivity panel; type: biochemical; conditions: % Inhibition at 100 μM, average of duplicates; 100: ≥100 %I; 0: ≤0 %I
Sequence of APN (P15144 whole entry, species assumed): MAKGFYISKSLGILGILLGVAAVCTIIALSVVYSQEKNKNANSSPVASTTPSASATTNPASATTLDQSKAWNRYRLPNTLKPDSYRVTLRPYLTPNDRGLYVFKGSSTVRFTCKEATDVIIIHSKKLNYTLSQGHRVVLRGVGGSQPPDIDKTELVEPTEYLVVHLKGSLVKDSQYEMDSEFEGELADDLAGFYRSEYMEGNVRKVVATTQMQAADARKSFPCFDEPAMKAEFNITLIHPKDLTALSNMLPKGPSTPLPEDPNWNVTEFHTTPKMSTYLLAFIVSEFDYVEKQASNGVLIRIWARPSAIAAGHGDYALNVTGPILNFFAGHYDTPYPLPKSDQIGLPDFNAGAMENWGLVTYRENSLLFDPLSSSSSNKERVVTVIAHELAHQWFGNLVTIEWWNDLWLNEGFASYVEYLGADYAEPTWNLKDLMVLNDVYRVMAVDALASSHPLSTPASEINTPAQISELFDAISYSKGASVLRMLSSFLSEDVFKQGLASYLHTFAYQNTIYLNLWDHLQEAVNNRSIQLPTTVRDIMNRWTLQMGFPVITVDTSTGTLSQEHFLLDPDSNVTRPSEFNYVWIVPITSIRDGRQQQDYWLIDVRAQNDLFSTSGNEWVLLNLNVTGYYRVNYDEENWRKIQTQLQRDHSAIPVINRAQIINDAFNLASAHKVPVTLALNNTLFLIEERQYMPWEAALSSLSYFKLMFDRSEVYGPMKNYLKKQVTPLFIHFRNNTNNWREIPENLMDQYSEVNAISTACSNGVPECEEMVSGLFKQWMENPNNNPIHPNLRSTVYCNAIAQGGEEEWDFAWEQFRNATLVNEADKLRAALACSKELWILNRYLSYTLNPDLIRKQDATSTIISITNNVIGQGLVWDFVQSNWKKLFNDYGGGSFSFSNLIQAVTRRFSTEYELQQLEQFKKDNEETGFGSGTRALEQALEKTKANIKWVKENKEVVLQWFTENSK

MMP-1 = biological target: T2, MMP-1 (Homo sapiens, UniProt P03956); test: MMP-1 inhibition, metalloprotease selectivity panel; type: biochemical; conditions: for MMP-1 (%I): % Inhibition at 100 μM, average of duplicates, 100: ≥100 %I, 0: ≤0 %I
T2 sequence (P03956 100-469): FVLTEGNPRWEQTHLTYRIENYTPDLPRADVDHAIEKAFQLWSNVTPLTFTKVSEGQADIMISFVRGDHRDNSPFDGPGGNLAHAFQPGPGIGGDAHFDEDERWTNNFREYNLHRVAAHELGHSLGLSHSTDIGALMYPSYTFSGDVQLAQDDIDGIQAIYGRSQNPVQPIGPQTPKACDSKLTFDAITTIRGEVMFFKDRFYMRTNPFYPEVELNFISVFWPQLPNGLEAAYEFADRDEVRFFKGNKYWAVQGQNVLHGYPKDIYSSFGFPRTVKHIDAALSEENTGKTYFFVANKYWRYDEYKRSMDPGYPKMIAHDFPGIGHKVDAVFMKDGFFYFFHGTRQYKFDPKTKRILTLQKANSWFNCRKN

CWR22 = test: cytotoxicity profile, CWR22; type: cell-based; conditions: CWR22, read-out: Cytotoxicity IC50, CWR22
[2] = tested on: panel of nine well characterized cancer cell lines; test: cytotoxicity profile across panel of nine cancer cell lines; type: cell-based; conditions: read-out: cytotoxicity IC50 range across cancer cell lines
HL-60 tumors = test: mouse xenograft model using HL-60 cells; type: in vivo; conditions: dose of 15 mg/kg, pilot study
metalloproteases tested = test: activity toward the metalloproteases tested; type: biochemical; conditions: Suppl. Table 2

SMILES | inhibition at 100 µM (HsPDF) | IC50 (EcPDF) | IC50 (HEK293) | IC50 (Meso47) | also measured
CCCCC[C@H](CC(=O)NO)C(=O)N[C@H](C(=O)N1CCC[C@H]1CO)C(C)C [Compd 1, actinonin, reference compound] |  |  |  |  | antibacterial activity, number of strains ([1]; panel of 15 bacterial strains): active in 12 out of the 15 strains tested
O=C1C(=O)c2c(C(=O)c3ccccc3)coc2C(Cl)=C1Cl [Compd 5] | ≥ 100% | > 100 µM | ≥ 100 µM | ≥ 100 µM | IC50 (HL-60/RV+): ≥ 100 µM; IC50 (Y79): ≥ 100 µM; MIC [1]: > 64 mg/L
O=C1C=Cc2occ(C(=O)c3ccccc3)c2C1=O [Compd 16] | ≥ 100% | > 100 µM |  |  | HsPDF (%I) (HsPDF): completely inhibited; EcPDF (%I) (EcPDF): low activity; APN (%I) (APN): low activity; MMP-1 (%I) (MMP-1): low activity
COc1ccc(C(=O)c2coc3c2C(=O)C(=O)C=C3)cc1 [Compd 17] |  | > 100 µM |  | ≥ 100 µM | HsPDF (%I) (HsPDF): completely inhibited; EcPDF (%I) (EcPDF): low activity; APN (%I) (APN): low activity; MMP-1 (%I) (MMP-1): low activity
COc1ccc(C(=O)c2coc3c2C(=O)C(=O)C=C3Cl)cc1 [Compd 19] | ≥ 100% | > 100 µM |  | ≥ 100 µM | 
COc1ccc(C(=O)c2coc3c2C(=O)C(=O)C(Cl)=C3)cc1 [Compd 20] |  | > 100 µM | ≥ 100 µM |  | 
COc1ccc(C(=O)c2coc3c2C(=O)C(=O)C=C3Br)cc1 [Compd 21] | ≥ 100% | > 100 µM |  | ≥ 100 µM | 
COc1ccc(C(=O)c2coc3c2C(=O)C(=O)C(Cl)=C3Cl)cc1 [Compd 22] |  | > 100 µM |  | ≥ 100 µM | EcPDF (%I) (EcPDF): no significant activity; MMP-1 (%I) (MMP-1): no significant activity; inhibition at 100 µM (MMP-1; read-out: MMP-1 (%I)): ≤ 0%; MIC [1]: > 64 mg/L
COc1ccc(C(=O)c2coc3c2C(=O)C(=O)C(Cl)=C3Cl)cc1OC [Compd 23] | ≥ 100% |  | ≥ 100 µM |  | IC50 (HL-60/RV+): ≥ 100 µM
COc1cc(C(=O)c2coc3c2C(=O)C(=O)C(Cl)=C3Cl)cc(OC)c1OC [Compd 24] | ≥ 100% | > 100 µM |  | ≥ 100 µM | 
COc1ccc(C(=O)c2coc3c2C(=O)C(=O)C(Br)=C3Br)cc1 [Compd 25] | ≥ 100% | > 100 µM | ≥ 100 µM | ≥ 100 µM | IC50 (HL-60/RV+): ≥ 100 µM
COc1ccc(C(=O)c2coc3c2C(=O)C(=O)C(Br)=C3Br)cc1OC [Compd 26] | ≥ 100% | > 100 µM | ≥ 100 µM | ≥ 100 µM | IC50 (CWR22): ≥ 100 µM; IC50 (Y79): ≥ 100 µM
COc1cc(C(=O)c2coc3c2C(=O)C(=O)C(Br)=C3Br)cc(OC)c1OC [Compd 27] | ≥ 100% | > 100 µM |  |  | EcPDF (IC50, μM) (EcPDF): no significant activity; IC50 [2]: 2.8 to 37 µM; delay of growth of HL-60 tumors (HL-60 tumors): up to 40%
COc1ccc(C(=O)c2coc3c2C(=O)C(=O)c2ccccc2-3)cc1 [Compd 32] |  |  |  |  | activity toward any of the metalloproteases tested (metalloproteases tested): no activity
COc1ccc(C(=O)c2coc3c2C(=O)C(=O)c2ccccc2-3)cc1OC [Compd 33] |  |  |  |  | activity toward any of the metalloproteases tested (metalloproteases tested): no activity
COc1cc(C(=O)c2coc3c2C(=O)C(=O)c2ccccc2-3)cc(OC)c1OC [Compd 34] |  |  |  |  | activity toward any of the metalloproteases tested (metalloproteases tested): no activity
